Measured values: patent US11591297B2, “Compound having PD-L1 expression-suppressing action” (TOHOKU UNIVERSITY, priority 2019, dated 2023)
pIC50: −log10 of the molar value.

What follows are compounds tested on PD-L1 (assay: Inhibitory effect of PD-L1 expression by cell staining with anti-PD-L1 antibody in IFN-γ-treated THP-1 cells (flow cytometry)). Conditions: Homo sapiens, IFN-γ 25 ng/mL, 24±2 hours, subMFI anti-CD274-PC7, read-out: IC50 (50% PD-L1 expression inhibition concentration).
Format: cell-based
Method: The inhibitory effects of each compound of Examples 1 to 6 on the PD-L1 expression were evaluated according to the following procedures.
(1) Acute monocytic leukemia cell-derived THP-1 cells were suspended in RPMI medium containing 10% FCS and 1% P/S (hereinafter, referred to as “RPMI medium”) at 5×10^5 cells/mL to obtain a cell suspension, and the cell suspension was dispensed into each well of a 6 well-plate in an amount of 3 mL. In order to activate the THP-1 cells and express PD-L1 in the cells, IFN-γ (PEPROTECH, Cat. No. 300-02-100UG, >2e+7 U/mg) was added into each well at a concentration of 25 ng/mL (>500 U/mL). 50 mmol/L of the test compound solution was diluted with the medium (usually, in the range of 0.025 mmol/L to 1 mmol/L), and the diluted solution was added into each well in an amount of 60 μL. The plate was incubated in a CO2 incubator (at 37° C. and 5% CO2) for 24±2 hours. In the control group, only DMSO was added in place of the test compound. (2) A part of the prepared cell culture liquid was collected and the number of cells therein was counted using a cell counter (BIORAD TC-20). The cell culture liquid was centrifuged at 300×g for 5 minutes and the supernatant of the cell culture liquid was removed. The cells were suspended in calcium and magnesium free phosphate buffered saline (PBS−) containing 1% bovine serum albumin (BSA) at a cell concentration of 1 to 2×10^7 cells/mL to prepare a cell suspension. (3) Each cell suspension prepared in the above step (2) were added into a 5 mL tube in an amount of 25 μL. 2 μL of 2% normal mouse serum/PBS− was added into tubes, and the tubes were gently pipetted. The tubes were then allowed to stand at room temperature for 15 minutes. (4) Anti-CD274-PC7 antibody (BECKMAN COULTER, Cat. No. A78884) or mouse IgG1-PC7 antibody (BECKMAN COULTER, 737662) as control was added in each tube in an amount of 10 μL, and the tubes were gently stirred. The tubes were then allowed to stand in the dark on an ice bath for 30 minutes. (5) Foxp3/Transcription Factor Fix/Perm Concentrate (4×) (Cat. No. TNB-1020-L050) (A solution) supplied in FOXP3/Transcription Factor Staining kit (TONBO biosciences) was diluted in Foxp3/Transcription Factor Fix/Perm Diluent (1×) (Cat. No. TNB-1022-L160) (A dilution solution) to prepare a 1×A solution. (6) The 1×A solution was added into each tube in an amount of 1 mL, and the tubes were gently pipetted and stirred. The tubes were then allowed to stand in the dark at room temperature for 30 minutes and centrifuged at 300×g for 5 minutes, and then the supernatants therein were removed. (7) 2 mL of 1% BSA/PBS− was added into each tube and the tubes were gently stirred and centrifuged at 300×g for 5 minutes, and then the supernatants therein were removed. (8) The cells therein were suspended in 0.5 mL of 1% BSA/PBS- and measured with a flow cytometer (Sony: Cell Sorter SH800) within 2 hours. The results were analyzed with a software, FlowJo (Tree Star Inc.). The mean peak fluorescence intensity (MFI) of PD-L1 and mean peak fluorescence intensity of IgG1 were calculated from histograms of the measured fluorescence intensity and number of cells, and the mean fluorescence intensity of IgG1 was subtracted from that of PD-L1 to calculate the subMFI. The experiments were performed in n=2.
The subMFI values of the control cells calculated by the FlowJo analysis and the cells cultured with the addition of the test compounds at each concentration (test cells) were input into an Excel file, and the percentages of the subMFI values of the test cells at each concentration to the average subMFI value of control cells were calculated. The regression line was determined from the percentages of the subMFI values of the test cells at each concentration by the method of least squares to calculate the 50% PD-L1 expression inhibition concentration (IC50 value) of each compound.

Point of comparison: `O=C(Nc1ccc(Oc2ccc(S(F)(F)(F)(F)F)cc2)cc1)C1CCCN(C(=O)c2ccc([N+](=O)[O-])cc2)C1` (stereo not shown) [Example 5, 1-(4-Nitrobenzoyl)-N-(4-(4-(pentafluorosulfanyl)phenoxy)phenyl)piperidine-3-carboxamide], pIC50 6.17. Against it:
- O=C(Nc1ccc(Oc2ccc(C(F)(F)F)cc2)cc1)C1CCCN(C(=O)c2ccc([N+](=O)[O-])cc2)C1 (stereo not shown) [Example 2, 1-(4-Nitrobenzoyl)-N-(4-(4-(trifluoromethyl)phenoxy)phenyl) piperidine-3-carboxamide] — 0.25 log units lower, 5.92
- COc1cc(C(=O)N2CCCC(C(=O)Nc3ccc(Oc4ccc(S(F)(F)(F)(F)F)cc4)cc3)C2)ccc1O (stereo not shown) [Example 6, 1-(4-Hydroxy-3-methoxybenzoyl)-N-(4-(4-(pentafluorosulfanyl)phenoxy)phenyl)piperidine-3-carboxamide] — within 0.2 log units, 6.08
- COc1cc(C(=O)N2CCCC(C(=O)Nc3ccc(Oc4ccc(C(F)(F)F)cc4)cc3)C2)ccc1O (stereo not shown) [Example 3, 1-(4-Hydroxy-3-methoxybenzoyl)-N-(4-(4-(trifluoromethyl)phenoxy)phenyl)piperidine-3-carboxamide] — within 0.2 log units, 6.03
